Results as given in EP1127890A1, “Steroid derivatives with an additional ring annulated to ring A and use of these derivatives for the preparation of meiosis regulating medicaments” (SCHERING AKTIENGESELLSCHAFT, priority 2000, dated 2001).
Where “and” joins values, the source holds several entries; their conditions need not be identical. Identical values can stand only once.

What was measured:
naked mouse oocytes [1] = assay: Test of meiosis-inhibiting substances in the oocyte test (co-culture with FF-MAS in Hx-medium); type: cell-based; conditions: for Oocytes [n] GV: number of oocytes with germinal vesicle; for Oocytes [n] GVB: number of oocytes with germinal vesicle breakdown; for Oocytes [n] PB: number of oocytes with polar bodies
Procedure: Oocytes were obtained from immature female mice (C57BI/6J × DBA/2J F1-hybrids, Bomholtgaard, Denmark) weighing 13 - 16 grams, that were kept under controlled lighting and temperature. The mice received an intra-peritoneal injection of 0.2 ml gonadotropins (Gonal F, Serono, Solna, Sweden , containing 20 IU FSH, alternatively, Puregon, Organon, Swords, Ireland containing 20 IU FSH) and 48 hours later the animals were killed by cervical dislocation. The ovaries were dissected out and the oocytes were isolated in Hx-medium (see below) under a stereo microscope by manual rupture of the follicles using a pair of 27 gauge needles. Spherical, naked oocytes (NO) displaying an intact germinal vesicle (GV) were placed in α-minimum essential medium (α-MEM without ribonucleosides, Gibco BRL, Cat.No. 22561) supplemented with 3 mM hypoxanthine (Sigma Cat. No. H-9377), 8 mg/ml Human Serum Albumin (HSA, State Serum Institute, Denmark), 0,23 mM pyrubate (Sigma, Cat. No. S-8636), 2 mM glutamine (Flow Cat. No. 16-801), 100 IU/ml penicillin and 100 µg/ml streptomycin (Flow, Cat No. 16-700). This medium was designated Hx-medium. The oocytes were rinsed three times in Hx-medium and cultured in 4-well multidishes (Nuncion, Denmark) in which each well contained 0.4 ml of Hx-medium and 30 - 40 oocytes. One control (i.e. 30 - 40 oocytes cultured in Hx-medium with no addition of test compound) was always run simultaneously with the test cultures, which were made with different concentrations of the compounds to be tested. The cultures were performed at 37 °C and 100 % humidity with 5 % CO2 in air. The culture time was 22 - 24 hours. Germinal vesicle (GV) oocytes were obtained from immature FSH treated female mice using the same methods as described in Example 1 (see above). Naked oocytes (NO) were rinsed three times in Hx-medium. […] NO were cultured in Hx-medium supplemented with 5 µM FF-MAS in co-culture with the test compounds in different concentrations in 4-well multidishes (Nunclon, Denmark) in which each well contained 0.4 ml of Hx-medium and 30 - 40 oocytes. One positive control (i.e., 30 - 40 oocytes cultured in Hx-medium containing FF-MAS with no addition of test compound) was always run simultaneously with the test cultures, which were supplemented with different concentrations of the compounds to be tested. In addition, one negative control ( 30 - 40 oocytes cultured in Hx-medium alone) was run simultaneously with the positive control. By the end of the culture period, the number of oocytes with germinal vesicle (GV) or germinal vesicle breakdown (GVB) and those with polar body (PB) was counted using a stereo microscope or an inverted microscope with differential interference contrast equipment. The percentage of oocytes with GVB + PB per total number of oocytes were calculated in the test cultures and in the control (positive and negative) culture groups. The relative inhibition of the test compound was calculated by the following formula: inhibition test compound (%) = 100% - [(GVB+PB (test compound) - GVB+PB (negative control)) x 100 / GVB+PB(positive control) - GVB+PB (negative control)] % [formula] Oocytes arrested in meiosis are characterised by an intact nucleus with a prominent nucleolus, known as germinal vesicle (GV). Upon reinitiation of meiosis the nucleolus and the nuclear envelope disappear and this is characterised by a breakdown of the GV, which than is called germinal vesicle breakdown (GVB). Some hours later the oocyte complete a reductional division and elicit the first so called polar body (PB).

naked mouse oocytes [2] = assay: Testing of meiosis-activating substances in the oocyte test (Hx-medium); type: cell-based; conditions: 10 µM in Hx-medium
Procedure: Oocytes were obtained from immature female mice (C57BI/6J × DBA/2J F1-hybrids, Bomholtgaard, Denmark) weighing 13 - 16 grams, that were kept under controlled lighting and temperature. The mice received an intra-peritoneal injection of 0.2 ml gonadotropins (Gonal F, Serono, Solna, Sweden , containing 20 IU FSH, alternatively, Puregon, Organon, Swords, Ireland containing 20 IU FSH) and 48 hours later the animals were killed by cervical dislocation.
The ovaries were dissected out and the oocytes were isolated in Hx-medium (see below) under a stereo microscope by manual rupture of the follicles using a pair of 27 gauge needles. Spherical, naked oocytes (NO) displaying an intact germinal vesicle (GV) were placed in α-minimum essential medium (α-MEM without ribonucleosides, Gibco BRL, Cat.No. 22561) supplemented with 3 mM hypoxanthine (Sigma Cat. No. H-9377), 8 mg/ml Human Serum Albumin (HSA, State Serum Institute, Denmark), 0,23 mM pyrubate (Sigma, Cat. No. S-8636), 2 mM glutamine (Flow Cat. No. 16-801), 100 IU/ml penicillin and 100 µg/ml streptomycin (Flow, Cat No. 16-700). This medium was designated Hx-medium. The oocytes were rinsed three times in Hx-medium and cultured in 4-well multidishes (Nuncion, Denmark) in which each well contained 0.4 ml of Hx-medium and 30 - 40 oocytes. One control (i.e. 30 - 40 oocytes cultured in Hx-medium with no addition of test compound) was always run simultaneously with the test cultures, which were made with different concentrations of the compounds to be tested. The cultures were performed at 37 °C and 100 % humidity with 5 % CO2 in air. The culture time was 22 - 24 hours.
By the end of the culture period, the number of oocytes with germinal vesicle (GV) or germinal vesicle breakdown (GVB) and those with polar body (PB) was counted using a stereo microscope or an inverted microscope with differential interference contrast equipment. The percentage of oocytes with GVB per total number of oocytes and the percentage of oocytes with PB per total number of oocytes was calculated in the test cultures and compared to the control culture.
Oocytes arrested in meiosis are characterised by an intact nucleus with a prominent nucleolus, known as germinal vesicle (GV). Upon reinitiation of meiosis the nucleolus and the nuclear envelope disappear and this is characterised by a breakdown of the GV, which than is called germinal vesicle breakdown (GVB). Some hours later the oocyte complete a reductional division and elicit the first so called polar body (PB).

[3] = 5µM FF-MAS + 10 µM test compound in Hx-medium
[4] = 5µM FF-MAS + 10 µM test compound in Hx-medium, relative inhibition of meiosis
[5] = 5µM FF-MAS alone in Hx-medium (positive control)

Row | SMILES | Oocytes [n] GV (naked mouse oocytes [1]; [3]) | Oocytes [n] GVB (naked mouse oocytes [1]; [3]) | Oocytes [n] PB (naked mouse oocytes [1]; [3]) | Inhibition [%] (naked mouse oocytes [1]; [4]) | Oocytes [n] GV (naked mouse oocytes [1]; [5]) | Oocytes [n] GVB (naked mouse oocytes [1]; [5]) | inhibition at 5 µM (naked mouse oocytes [1]; Mus musculus, Oocyte, 5µM FF-MAS alone in Hx-medium (positive control), relative inhibition of meiosis) | Oocytes [n] GV (naked mouse oocytes [2]) | Oocytes [n] GVB (naked mouse oocytes [2]) | Oocytes [n] PB (naked mouse oocytes [2]) | activation at 10 µM (naked mouse oocytes [2]; Mus musculus, Oocyte, read-out: Activation [%] GVB+PB)
1 | CC(C)CCC[C@@H](C)[C@H]1CC[C@H]2C3=C(CC[C@]12C)[C@@]1(C)CC[C@@]2(OCCO)C[C@]1(CC3)[C@H](C)O2 [Example 5, 2-[(4aα-methyl-4a-homo-3α,5-methano-4-oxa-5α-cholest-8-en-3β-yl)oxy]ethanol] | 30 n | 0 n | 0 n | 100% | – | – | – | – | – | – | –
2 | CC(C)=CCO[C@H]1CC[C@H]2[C@@H]3CC[C@]45C[C@H](CC[C@]4(C)[C@H]3CC[C@]12C)OC5=O [Example 12, 17β-(prenyloxy)-5β-androstane-5,3β-carbolactone] | 24 n | 9 n | 1 n | 84% | – | – | – | – | – | – | –
3 | CC(C)=CCC[C@@H](C)[C@H]1CC=C2C3=C(CC[C@@]21C)[C@@]1(C)CC[C@H](O)C(C)(C)[C@@H]1CC3 [FF-MAS, 4,4-Dimethylcholest-B, 14,24-trien-3β-ol] | – | – | – | – | 4 n and 8 n | 16 n and 25 n | 0% | 6 n | 31 n | 2 n | 85%
